Test results taken from patent US8318769B2, “Substituted sulfonamide compounds” (Gruenethal GmbH, priority 2008, dated 2012).

Molecular target: T1, bradykinin 1 receptor (B1R) of the rat (Rattus norvegicus, UniProt P97583)
T1 construct: expressed in transfected cells
T1 sequence (P97583 1-337): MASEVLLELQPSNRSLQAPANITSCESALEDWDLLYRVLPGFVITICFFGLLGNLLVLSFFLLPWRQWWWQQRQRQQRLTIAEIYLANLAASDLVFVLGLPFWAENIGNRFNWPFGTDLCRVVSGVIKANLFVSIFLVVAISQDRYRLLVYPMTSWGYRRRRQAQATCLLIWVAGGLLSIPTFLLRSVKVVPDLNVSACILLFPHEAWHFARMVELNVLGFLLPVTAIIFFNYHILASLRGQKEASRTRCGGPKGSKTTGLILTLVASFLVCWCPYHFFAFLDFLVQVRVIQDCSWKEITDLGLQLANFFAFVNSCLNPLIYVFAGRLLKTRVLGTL
Test: FLIPR Ca2+ assay, B1R antagonism, rat
Type: cell-based
Conditions: CHO K1 cells with rat B1R gene (rB1R cells), Des-Arg9-bradykinin at EC80, % inhibition compared with the maximum achievable inhibition; for inhibition at 10 µM: CHO-K1, 10 μM test substance, read-out: B1R antagonism, rat [10 μM] % inhibition
Experimental: The agonistic or antagonistic action of substances can be quantified on the bradykinin 1 receptor (B1R) of the human and rat species with ectopically expressing cell lines (CHO K1 cells) and with the aid of a Ca^2+-sensitive dyestuff (Fluo-4) in a fluorescent imaging plate reader (FLIPR). The figure in % activation is based on the Ca^2+ signal after addition of Lys-Des-Arg^9-bradykinin (0.5 nM) or Des-Arg^9-bradykinin (100 nM). Antagonists lead to a suppression of the Ca^2+ inflow after addition of the agonist. % inhibition compared with the maximum achievable inhibition is stated.
The agonistic or antagonistic action of substances can be determined on the bradykinin 1 receptor (B1R) of the human and rat species with the following assay. In accordance with this assay, the Ca^2+ inflow through the channel is quantified with the aid of a Ca^2+-sensitive dyestuff (type Fluo-4, Molecular Probes Europe BV, Leiden, Holland) in a fluorescent imaging plate reader (FLIPR, Molecular Devices, Sunnyvale, USA).
Chinese hamster ovary cells (CHO K1 cells) transfected stably with the human B1R gene (hB1R cells) or the B1R gene of the rat (rB1R cells) are used. For functional studies, these cells are plated out on black 96-well plates with a clear base (BD Biosciences, Heidelberg, Germany or Greiner, Frickenhausen, Germany) in a density of 20,000-35,000 cells/well. The cells are left overnight at 37° C. and 5% CO2 in culture medium (hB1R cells: Nutrient Mixture Ham's F12, Gibco Invitrogen GmbH, Karlsruhe, Germany or DMEM, Sigma-Aldrich, Taufkirchen, Germany; rB1R cells: D-MEM/F12, Gibco Invitrogen GmbH, Karlsruhe, Germany) with 10 vol. % FBS (foetal bovine serum, Gibco Invitrogen GmbH, Karlsruhe, Germany or PAN Biotech GmbH, Aidenbach, Germany).
On the following day, the cells are loaded for 60 min at 37° C. with 2.13 μM Fluo-4 (Molecular Probes Europe BV, Leiden, Holland) in HBSS buffer (Hank's buffered saline solution, Gibco Invitrogen GmbH, Karlsruhe, Germany) with 2.5 mM probenecid (Sigma-Aldrich, Taufkirchen, Germany) and 10 mM HEPES (Sigma-Aldrich, Taufkirchen, Germany). The plates are then washed 2× with HBSS buffer, and HBSS buffer which additionally contains 0.1% BSA (bovine serum albumin; Sigma-Aldrich, Taufkirchen, Germany), 5.6 mM glucose and 0.05% gelatine (Merck KGaA, Darmstadt, Germany) is added. After a further incubation of 20 minutes at room temperature, the plates are inserted into the FLIPR for the Ca^2+ measurement.
Alternatively, the plates are washed with buffer A (15 mM HEPES, 80 mM NaCl, 5 mM KCl, 1.2 mM CaCl2, 0.7 mM MgSO4, 2 g/l glucose, 2.5 mM probenecid), buffer A is added and the plates are loaded with 2.5 μM Fluo-4 and 0.025% Pluronic F127 (Sigma-Aldrich, Taufkirchen, Germany). Thereafter, the cells are washed 2× with buffer A and incubated for 30 minutes with buffer A, which additionally contains 0.05% BSA and 0.05% gelatine, at room temperature and thereafter inserted into the FLIPR for the Ca^2+ measurement.
The Ca^2+-dependent fluorescence is measured here before and after addition of substances (λex=488 nm, λem=540 nm). Quantification is by measurement of the highest fluorescence intensity (FC, fluorescence counts) over time.
The FLIPR protocol consists of 2 additions of substance. Test substances (10 μM) are first pipetted on to the cells and the Ca^2+ inflow is compared with the control (hB1R: Lys-Des-Arg^9-bradykinin >=50 nM; rB1R: Des-Arg^9-bradykinin 10 μM). This gives the figure in % activation based on the Ca^2+ signal after addition of Lys-Des-Arg^9-bradykinin (>=50 nM) or Des-Arg^9-bradykinin (10 μM).
After incubation for 10-20 minutes, Lys-Des-Arg^9-bradykinin (hB1R) or Des-Arg^9-bradykinin (rB1R) in the concentration of the EC80 is applied and the inflow of Ca^2+ is likewise determined. Antagonists lead to a suppression of the Ca^2+ inflow. % inhibition compared with the maximum achievable inhibition is calculated. […]

Row | SMILES | inhibition at 10 µM [%] | B1R antagonism, rat [10 μM] % inhibition (10 μM test substance, 10 µM) [%]
1 | O=C(CCCC1CCCCN1S(=O)(=O)c1ccc2ccccc2c1)N1CCC(OCCN2CCCC2)(c2cccc(F)c2)CC1 (centres unmarked) [Example 96, 1-[4-(3-fluorophenyl)-4-(2-pyrrolidin-1-yl-ethoxy)-piperidin-1-yl]-4-[1-(naphthalen-2-ylsulfonyl)-piperidin-2-yl]-butan-1-one] | 79 | 
2 | COc1cc(C)c(S(=O)(=O)N2CCCCC2COCC(=O)N2CCC(OCCN3CCCC3)(c3ccc(C(F)(F)F)cc3)CC2)c(C)c1 (centres unmarked) [Example 65, 2-[[1-[(4-methoxy-2,6-dimethyl-phenyl)sulfonyl]-piperidin-2-yl]-methoxy]-1-[4-(2-pyrrolidin-1-yl-ethoxy)-4-[4-(trifluoromethyl)-phenyl]-piperidin-1-yl]-ethanone] | 96 | 
3 | O=C(CC1CCCCN1S(=O)(=O)c1cccc(C(F)(F)F)c1)N1CCC(OCCN2CCCC2)(c2ccc(C(F)(F)F)cc2)CC1 (centres unmarked) [Example 73, 1-[4-(2-pyrrolidin-1-yl-ethoxy)-4-[4-(trifluoromethyl)-phenyl]-piperidin-1-yl]-2-[1-[[3-(trifluoromethyl)phenyl]sulfonyl]-piperidin-2-yl]-ethanone] | 100 | 
4 | O=C(COCC1CCc2ccccc2N1S(=O)(=O)c1ccc2ccccc2c1)N1CCC(OCCN2CCCC2)(c2cccnc2)CC1 (centres unmarked) [Example 129, 2-[[1-(naphthalen-2-ylsulfonyl)-1,2,3,4-tetrahydro-quinolin-2-yl]-methoxy]-1-[4-pyridin-3-yl-4-(2-pyrrolidin-1-yl-ethoxy)-piperidin-1-yl]-ethanone] | 92 | 
5 | O=C(CCCC1CCCCN1S(=O)(=O)c1ccccc1C(F)(F)F)N1CCC(OCCN2CCCC2)(c2cccc(F)c2)CC1 (centres unmarked) [Example 86, 1-[4-(3-fluorophenyl)-4-(2-pyrrolidin-1-yl-ethoxy)-piperidin-1-yl]-4-[1-[[2-(trifluoromethyl)-phenyl]sulfonyl]-piperidin-2-yl]-butan-1-one] | 102 | 
6 | Cc1cc(S(=O)(=O)N2CCCCC2CCC(=O)N2CCC(OCCN3CCCC3)(c3ccc(C(F)(F)F)cc3)CC2)c(C)cc1Cl (centres unmarked) [Example 75, 3-[1-[(4-chloro-2,5-dimethyl-phenyl)sulfonyl]-piperidin-2-yl]-1-[4-(2-pyrrolidin-1-yl-ethoxy)-4-[4-(trifluoromethyl)-phenyl]-piperidin-1-yl]-propan-1-one] | 96 | 
7 | Cc1cccc(Cl)c1S(=O)(=O)N1CCCCC1COCC(=O)N1CCC(OCCN2CCCC2)(c2ccc(F)cc2)CC1 (centres unmarked) [Example 68, 2-[[1-[(2-chloro-6-methyl-phenyl)sulfonyl]-piperidin-2-yl]-methoxy]-1-[4-(4-fluorophenyl)-4-(2-pyrrolidin-1-yl-ethoxy)-piperidin-1-yl]-ethanone] | 93 | 
8 | COc1cc(C)c(S(=O)(=O)N2CCCCC2CCOCC(=O)N2CCC(OCCN3CCCC3)(c3cccnc3)CC2)c(C)c1 (centres unmarked) [Example 124, 2-[2-[1-[(4-methoxy-2,6-dimethyl-phenyl)sulfonyl]-piperidin-2-yl]-ethoxy]-1-[4-pyridin-3-yl-4-(2-pyrrolidin-1-yl-ethoxy)-piperidin-1-yl]-ethanone] |  | 98
9 | O=C(CCCC1CCCCN1S(=O)(=O)c1cccc2ccccc12)N1CCC(OCCN2CCCC2)(c2cccc(F)c2)CC1 (centres unmarked) [Example 93, 1-[4-(3-fluorophenyl)-4-(2-pyrrolidin-1-yl-ethoxy)-piperidin-1-yl]-4-[1-(naphthalen-1-ylsulfonyl)-piperidin-2-yl]-butan-1-one] | 101 | 
10 | COc1cc(C)c(S(=O)(=O)N2CCCCC2CCOCC(=O)N2CCC(OCCN3CCCC3)(c3cccc(F)c3)CC2)c(C)c1 (centres unmarked) [Example 125, 1-[4-(3-fluorophenyl)-4-(2-pyrrolidin-1-yl-ethoxy)-piperidin-1-yl]-2-[2-[1-[(4-methoxy-2,6-dimethyl-phenyl)sulfonyl]-piperidin-2-yl]-ethoxy]-ethanone] | 99 | 
11 | CS(=O)(=O)N(CCOCC(=O)N1CCC(OCCN2CCCC2)(c2cccnc2)CC1)C(c1ccccc1)c1ccccc1 [Example 104, N-benzhydryl-N-[2-[2-oxo-2-[4-pyridin-3-yl-4-(2-pyrrolidin-1-yl-ethoxy)-piperidin-1-yl]-ethoxy]-ethyl]-methanesulfonic acid amide] | 100 | 
12 | COc1cc(C)c(S(=O)(=O)N2CCCCC2COCC(=O)N2CCC(OCCN3CCCC3)(c3ccc(F)cc3)CC2)c(C)c1 (centres unmarked) [Example 64, 1-[4-(4-fluorophenyl)-4-(2-pyrrolidin-1-yl-ethoxy)-piperidin-1-yl]-2-[[1-[(4-methoxy-2,6-dimethyl-phenyl)sulfonyl]-piperidin-2-yl]-methoxy]-ethanone] | 98 | 
13 | COc1cc(C)c(S(=O)(=O)N2CCCCC2CCOCC(=O)N2CCC(OCCN3CCCC3)(c3cccnc3)CC2)c(C)c1 (centres unmarked) [Example 123, 2-[2-[1-[(4-methoxy-2,6-dimethyl-phenyl)sulfonyl]-piperidin-2-yl]-ethoxy]-1-[4-pyridin-3-yl-4-(2-pyrrolidin-1-yl-ethoxy)-piperidin-1-yl]-ethanone] | 96 | 
14 | O=C(COCC1CCc2ccccc2N1S(=O)(=O)c1ccc2ccccc2c1)N1CCC(OCCN2CCCC2)(c2cccc(F)c2)CC1 (centres unmarked) [Example 131, 1-[4-(3-fluorophenyl)-4-(2-pyrrolidin-1-yl-ethoxy)-piperidin-1-yl]-2-[[1-(naphthalen-2-ylsulfonyl)-1,2,3,4-tetrahydro-quinolin-2-yl]-methoxy]-ethanone] | 44 | 
15 | O=C(CC1COc2ccccc2N1S(=O)(=O)c1ccc(Cl)cc1Cl)N1CCC(OCCN2CCCC2)(c2cccc(F)c2)CC1 (centres unmarked) [Example 128, 2-[4-[(2,4-dichlorophenyl)sulfonyl]-3,4-dihydro-2H-[1,4]benzoxazin-3-yl]-1-[4-(3-fluorophenyl)-4-(2-pyrrolidin-1-yl-ethoxy)-piperidin-1-yl]-ethanone] | 41 | 
16 | O=C(CCCC1CCCCN1S(=O)(=O)c1cccc2ccccc12)N1CCC(OCCN2CCCC2)(c2ccncc2)CC1 (centres unmarked) [Example 94, 4-[1-(naphthalen-1-ylsulfonyl)-piperidin-2-yl]-1-[4-pyridin-4-yl-4-(2-pyrrolidin-1-yl-ethoxy)-piperidin-1-yl]-butan-1-one] | 59 | 
17 | O=C(CCCC1CCCCN1S(=O)(=O)c1cccc2ccccc12)N1CCC(OCCN2CCCC2)(c2cccnc2)CC1 (centres unmarked) [Example 92, 4-[1-(naphthalen-1-ylsulfonyl)-piperidin-2-yl]-1-[4-pyridin-3-yl-4-(2-pyrrolidin-1-yl-ethoxy)-piperidin-1-yl]-butan-1-one] | 95 | 
